Here are results for 1 compound from patent US20120219615A1, “Therapeutic Use of a TLR Agonist and Combination Therapy” (The Trustees of the University of Pennsylvania, priority 2010, published 2012).

Where only a bound is given, the exact number is not on record here.

Format in all cases: cell-based
One test deals with T1, TLR7 (Homo sapiens, UniProt Q9NYK1).
T1 construct: expressed in transfected cells; host or cells: HEK293
T1 sequence (Q9NYK1 27-1049): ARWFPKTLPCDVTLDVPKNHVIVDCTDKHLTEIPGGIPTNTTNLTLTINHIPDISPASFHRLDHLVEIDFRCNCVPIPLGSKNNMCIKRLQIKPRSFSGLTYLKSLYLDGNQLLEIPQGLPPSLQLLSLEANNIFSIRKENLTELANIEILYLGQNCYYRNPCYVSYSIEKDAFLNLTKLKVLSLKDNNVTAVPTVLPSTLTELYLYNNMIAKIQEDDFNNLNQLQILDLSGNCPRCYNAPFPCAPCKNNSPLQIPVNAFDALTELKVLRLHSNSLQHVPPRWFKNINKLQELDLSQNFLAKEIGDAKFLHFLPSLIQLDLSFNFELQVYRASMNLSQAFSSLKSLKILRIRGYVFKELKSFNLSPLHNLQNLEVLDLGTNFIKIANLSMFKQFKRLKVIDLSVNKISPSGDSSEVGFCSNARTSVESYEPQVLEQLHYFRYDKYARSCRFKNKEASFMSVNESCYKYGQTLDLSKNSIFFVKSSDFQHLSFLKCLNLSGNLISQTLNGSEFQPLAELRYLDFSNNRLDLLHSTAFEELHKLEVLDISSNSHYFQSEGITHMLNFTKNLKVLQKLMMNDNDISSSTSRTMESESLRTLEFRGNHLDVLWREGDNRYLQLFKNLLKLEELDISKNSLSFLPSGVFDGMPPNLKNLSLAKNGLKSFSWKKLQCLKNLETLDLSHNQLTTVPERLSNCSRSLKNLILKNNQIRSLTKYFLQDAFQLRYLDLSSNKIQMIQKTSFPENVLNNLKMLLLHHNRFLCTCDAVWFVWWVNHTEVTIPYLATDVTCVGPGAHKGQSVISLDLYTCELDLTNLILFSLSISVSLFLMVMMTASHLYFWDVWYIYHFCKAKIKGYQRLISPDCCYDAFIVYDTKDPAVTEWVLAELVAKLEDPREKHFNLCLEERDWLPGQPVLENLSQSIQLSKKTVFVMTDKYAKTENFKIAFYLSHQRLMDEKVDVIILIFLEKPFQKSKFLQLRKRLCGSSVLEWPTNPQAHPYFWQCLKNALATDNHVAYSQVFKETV
Kind of test: IFNα production in PBMCs (marker of TLR7 activation). To be noted: PBMCs from 15 healthy donors. The procedure:
(§1) The half-maximal effective concentration (EC50) for VTX-2337 activation of TLR8 and TLR7 was assessed in peripheral blood mononuclear cells (PBMCs) from 15 healthy donors and also in HEK293 cells transfected with TLR8 or TLR7 and an NF-κB driven reporter gene. […] Also it was observed that VTX-2337 had no activity on TLR2, TLR3, TLR4, TLR5, TLR6, or TLR9 at concentrations up to 25 μM.

Another test deals with TLR5 (Homo sapiens, UniProt O60602). Kind of test: Activity on TLR5. To be noted: concentrations up to 25 μM. The procedure: as §1
Another test deals with TLR6 (Homo sapiens, UniProt O60603+Q9Y2C9). Put plainly: Activity on TLR6. To be noted: concentrations up to 25 μM. The protocol:
as §1

In a further test the target is T2, TLR8 (Homo sapiens, UniProt Q9NR97).
T2 construct: assessed in peripheral blood mononuclear cells (PBMCs) from 15 healthy donors; endogenous in cells; host or cells: PBMCs from 15 healthy donors
T2 sequence (Q9NR97 27-1041): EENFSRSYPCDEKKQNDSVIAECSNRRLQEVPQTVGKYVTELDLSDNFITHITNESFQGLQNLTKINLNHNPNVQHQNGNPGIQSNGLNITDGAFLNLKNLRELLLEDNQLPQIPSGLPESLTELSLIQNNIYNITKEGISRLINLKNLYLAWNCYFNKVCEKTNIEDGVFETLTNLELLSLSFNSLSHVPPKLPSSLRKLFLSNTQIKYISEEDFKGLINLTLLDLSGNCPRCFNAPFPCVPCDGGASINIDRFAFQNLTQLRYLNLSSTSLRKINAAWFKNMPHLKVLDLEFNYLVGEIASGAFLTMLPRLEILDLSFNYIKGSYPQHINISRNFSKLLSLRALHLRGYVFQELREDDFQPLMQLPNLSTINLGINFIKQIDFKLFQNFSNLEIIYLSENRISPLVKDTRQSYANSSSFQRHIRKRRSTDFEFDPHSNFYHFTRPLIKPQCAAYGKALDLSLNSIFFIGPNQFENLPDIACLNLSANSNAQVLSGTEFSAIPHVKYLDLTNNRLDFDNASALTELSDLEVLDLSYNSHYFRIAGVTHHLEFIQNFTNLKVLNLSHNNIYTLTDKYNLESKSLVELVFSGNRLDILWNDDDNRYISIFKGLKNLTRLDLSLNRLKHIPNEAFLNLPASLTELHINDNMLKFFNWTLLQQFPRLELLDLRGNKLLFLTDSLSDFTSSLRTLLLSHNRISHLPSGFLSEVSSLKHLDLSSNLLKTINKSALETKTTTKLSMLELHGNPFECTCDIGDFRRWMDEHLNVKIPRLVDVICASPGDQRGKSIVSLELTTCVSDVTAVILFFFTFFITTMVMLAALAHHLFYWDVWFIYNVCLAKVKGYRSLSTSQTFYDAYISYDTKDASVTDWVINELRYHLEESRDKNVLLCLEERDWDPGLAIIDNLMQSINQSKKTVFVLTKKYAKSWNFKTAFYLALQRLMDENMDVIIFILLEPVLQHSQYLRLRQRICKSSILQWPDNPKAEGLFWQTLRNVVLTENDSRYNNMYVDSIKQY
Kind of test: HEK293 cells transfected with TLR8 and NF-κB driven reporter gene. To be noted: HEK293 transfectants. The protocol: as §1
(A reporter such as luciferase makes a cellular process visible.)

Chain of TLR5 (O60602 21-858, species assumed): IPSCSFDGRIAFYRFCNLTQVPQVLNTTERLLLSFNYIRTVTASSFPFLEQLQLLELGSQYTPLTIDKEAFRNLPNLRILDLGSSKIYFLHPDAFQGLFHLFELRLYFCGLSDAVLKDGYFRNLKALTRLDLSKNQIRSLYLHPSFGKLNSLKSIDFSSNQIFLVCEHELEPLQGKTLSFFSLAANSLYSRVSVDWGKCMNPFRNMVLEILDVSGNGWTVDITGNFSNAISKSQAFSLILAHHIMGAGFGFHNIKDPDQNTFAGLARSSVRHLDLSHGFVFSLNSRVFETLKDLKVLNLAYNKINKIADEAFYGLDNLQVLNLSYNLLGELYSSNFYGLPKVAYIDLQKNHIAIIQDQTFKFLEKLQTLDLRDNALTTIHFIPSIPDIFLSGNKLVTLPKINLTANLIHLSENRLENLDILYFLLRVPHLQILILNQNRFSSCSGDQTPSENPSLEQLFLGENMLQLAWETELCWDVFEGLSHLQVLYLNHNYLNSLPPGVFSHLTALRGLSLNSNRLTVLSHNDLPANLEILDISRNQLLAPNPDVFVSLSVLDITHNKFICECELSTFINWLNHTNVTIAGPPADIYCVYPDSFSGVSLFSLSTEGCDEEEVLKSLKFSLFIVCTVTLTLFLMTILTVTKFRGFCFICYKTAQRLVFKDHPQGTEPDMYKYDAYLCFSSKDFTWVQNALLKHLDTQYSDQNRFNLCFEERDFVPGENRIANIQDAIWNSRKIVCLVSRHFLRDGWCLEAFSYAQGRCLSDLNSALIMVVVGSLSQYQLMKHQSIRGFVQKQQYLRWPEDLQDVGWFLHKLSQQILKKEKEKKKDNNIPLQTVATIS
Chain of TLR6 (Q9Y2C9 32-796, species assumed): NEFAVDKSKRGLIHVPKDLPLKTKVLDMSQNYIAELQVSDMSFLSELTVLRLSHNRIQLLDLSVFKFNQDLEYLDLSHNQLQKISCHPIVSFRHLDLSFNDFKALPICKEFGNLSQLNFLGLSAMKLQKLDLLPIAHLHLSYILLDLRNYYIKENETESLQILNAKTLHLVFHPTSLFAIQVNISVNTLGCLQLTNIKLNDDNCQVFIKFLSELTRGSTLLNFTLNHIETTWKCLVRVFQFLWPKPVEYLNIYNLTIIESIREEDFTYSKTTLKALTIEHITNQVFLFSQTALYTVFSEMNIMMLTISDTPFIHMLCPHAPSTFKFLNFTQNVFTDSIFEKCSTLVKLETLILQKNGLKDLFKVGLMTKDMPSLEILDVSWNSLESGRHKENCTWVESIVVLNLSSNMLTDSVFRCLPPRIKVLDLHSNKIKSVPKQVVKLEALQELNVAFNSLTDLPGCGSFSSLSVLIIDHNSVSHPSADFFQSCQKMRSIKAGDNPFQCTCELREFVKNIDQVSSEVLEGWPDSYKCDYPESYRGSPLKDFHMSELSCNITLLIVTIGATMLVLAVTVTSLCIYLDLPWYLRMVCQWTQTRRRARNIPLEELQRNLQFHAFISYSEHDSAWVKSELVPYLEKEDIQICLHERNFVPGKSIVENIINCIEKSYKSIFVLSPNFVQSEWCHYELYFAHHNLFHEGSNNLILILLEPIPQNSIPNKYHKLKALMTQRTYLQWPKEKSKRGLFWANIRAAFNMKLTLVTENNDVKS
Chain of TLR6 (O60603 21-784, species assumed): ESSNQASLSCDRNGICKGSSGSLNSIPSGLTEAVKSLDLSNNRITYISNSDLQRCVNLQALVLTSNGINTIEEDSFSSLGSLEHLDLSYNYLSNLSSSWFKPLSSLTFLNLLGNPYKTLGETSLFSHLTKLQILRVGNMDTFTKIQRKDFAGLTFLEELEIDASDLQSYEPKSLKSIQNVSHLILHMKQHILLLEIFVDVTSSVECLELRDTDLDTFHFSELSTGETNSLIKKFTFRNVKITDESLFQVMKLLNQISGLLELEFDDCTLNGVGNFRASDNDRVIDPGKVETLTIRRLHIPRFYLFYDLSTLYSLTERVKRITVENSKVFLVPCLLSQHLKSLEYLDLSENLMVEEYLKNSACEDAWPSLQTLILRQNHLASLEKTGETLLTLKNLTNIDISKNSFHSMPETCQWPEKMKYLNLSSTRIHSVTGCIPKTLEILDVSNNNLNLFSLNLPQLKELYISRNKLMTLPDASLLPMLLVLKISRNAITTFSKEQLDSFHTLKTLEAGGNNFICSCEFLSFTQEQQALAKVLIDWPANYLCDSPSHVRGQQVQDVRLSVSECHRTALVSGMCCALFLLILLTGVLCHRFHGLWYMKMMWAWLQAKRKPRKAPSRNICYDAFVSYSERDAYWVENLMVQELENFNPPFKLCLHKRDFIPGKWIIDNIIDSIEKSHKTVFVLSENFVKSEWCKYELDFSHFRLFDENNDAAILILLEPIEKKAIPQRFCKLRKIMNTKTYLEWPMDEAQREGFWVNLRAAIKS

In the case of `CCCN(CCC)C(=O)C1=Cc2ccc(-c3ccc(C(=O)N4CCCC4)cc3)cc2N=C(N)C1` [VTX-2337, 2-amino-N,N-dipropyl-8-(4-(pyrrolidine-1-carbonyl)phenyl)-3H-benzo[b]azepine-4-carboxamide], the EC50 (usually the concentration at which the effect is half-maximal) at TLR7 was greater than 3330 nM; at TLR8, 70 nM. In addition, the “activity on TLR5” value on TLR5 is given as “no activity”. Besides, the “activity on TLR6” value at TLR6 is “no activity”.
